# Legend:
# [1] = racemic nitrendipine; cited from earlier work
# [2] = oral administration with water; cited from earlier work
# [3] = system: CYP3A4; conditions: cited from earlier work
# [4] = system: felodipine first-pass metabolism; conditions: in vivo; cited from earlier work
# [5] = target: T1, cytochrome P450 3A4 (Homo sapiens, UniProt P08684); test: Inhibition of cyclosporin A metabolism (3 metabolites M1, M6, M21) by yeast-expressed P450 3A4 microsomes; assay type: biochemical
# T1 construct: made in house; host or cells: Saccharomyces cerevisiae strain AH22, vector pAAH5 (p3A4); microsomal fractions
# T1 sequence (P08684 whole entry): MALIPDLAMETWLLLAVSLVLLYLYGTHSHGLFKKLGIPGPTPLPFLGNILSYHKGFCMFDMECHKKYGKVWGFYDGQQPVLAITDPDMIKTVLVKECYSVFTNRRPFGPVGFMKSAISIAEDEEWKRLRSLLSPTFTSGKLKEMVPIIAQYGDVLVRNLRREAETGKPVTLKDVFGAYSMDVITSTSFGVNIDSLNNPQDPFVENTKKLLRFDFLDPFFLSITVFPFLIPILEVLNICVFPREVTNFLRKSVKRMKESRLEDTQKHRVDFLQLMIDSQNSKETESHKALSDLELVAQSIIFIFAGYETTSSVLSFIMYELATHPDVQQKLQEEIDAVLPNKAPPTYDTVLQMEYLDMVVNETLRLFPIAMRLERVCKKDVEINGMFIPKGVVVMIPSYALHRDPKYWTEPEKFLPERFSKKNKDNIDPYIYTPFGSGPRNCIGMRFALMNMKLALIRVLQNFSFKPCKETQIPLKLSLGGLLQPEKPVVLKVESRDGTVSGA
# Procedure: Human cytochrome P450 3A4 was expressed using the vector pAAH5 (p3A4) in Saccharomyces cerevisiae strain AH22 (Guengerich et al., 1991). Plasmid DNA was prepared using Promega's Wizard kit and S. cerevisiae strain AH22 (a his4-519 leu2-3,2-112) was used for transformation. Transformants were grown and maintained at 30° C. on minimal medium containing 2% (w/v) glucose, 0.67% (w/v) Difco yeast nitrogen base without amino acids and 20 μg/ml histidine. Cytochrome P450 content and substrate binding studies were carried out spectrally using a Philips PU8800 US/Vis scanning spectrophotometer according to Omura and Sato (1964) and Jefcoate (1979) respectively. Protein content was determined by the method of Lowry et al. 1956. […] CO was bubbled into the sample cuvette and the difference spectrum was recorded between 390-500 nm. […] Nootkatone was added to the microsomal fractions in the sample cuvette but to the buffer in the reference cuvette and difference spectra recorded between 350-500 nm. […]
# The ethyl acetate extracts from biotransformation studies were directly spotted on to TLC plates and developed in solvent system heptane/pyridine/ethyl acetate (100/75/1 v/v) in a chromatographic tank lined with a blotting paper the same size as the TLC plate. […] The Rf valves of spots were measured and compared to the literature. […]
# [6] = target: T1, cytochrome P450 3A4; test: biochemical; assay type: binding
# Procedure: Human cytochrome P450 3A4 was expressed using the vector pAAH5 (p3A4) in Saccharomyces cerevisiae strain AH22 (Guengerich et al., 1991). Plasmid DNA was prepared using Promega's Wizard kit and S. cerevisiae strain AH22 (a his4-519 leu2-3,2-112) was used for transformation. Transformants were grown and maintained at 30° C. on minimal medium containing 2% (w/v) glucose, 0.67% (w/v) Difco yeast nitrogen base without amino acids and 20 μg/ml histidine. Cytochrome P450 content and substrate binding studies were carried out spectrally using a Philips PU8800 US/Vis scanning spectrophotometer according to Omura and Sato (1964) and Jefcoate (1979) respectively. Protein content was determined by the method of Lowry et al. 1956. Yeast microsomal fractions used in reduced carbon monoxide difference spectra, substrate binding studies and metabolism studies were prepared as described previously (Mehmood et al., 1995). This involved mechanical breakage of the yeast cells (harvested at 5×10^7 cells/ml) using a Braun MSK homogeniser and centrifugation to pellet cells and mitochondria prior to harvesting microsomes after 1 h, 100000 g. […] CO was bubbled into the sample cuvette and the difference spectrum was recorded between 390-500 nm. […] Nootkatone was added to the microsomal fractions in the sample cuvette but to the buffer in the reference cuvette and difference spectra recorded between 350-500 nm.
# [7] = Toxicity of nootkatone at concentrations in grapefruit juice; conditions: at concentrations found in normal strength grapefruit juice (approximately 7 mg/200 ml)
# [8] = system: cytochrome P450 or related enzyme system; test: Inhibition of the first enzyme catalysed oxidative step (conversion of valencene to nootkatone); assay type: cell-based, both eukaryotes and prokaryotes; conditions: valencene oxidation; many organisms, eukaryotes and prokaryotes
# Excerpt: In addition to plant produced nootkatone a number of enzyme systems produced by organisms other than higher plants have the capability of converting synthetic precursors of nootkatone to nootkatone itself. Thus, for example, a variety of microorganisms can oxidise valencene to nootkatone.
# Whilst investigating such transformations as effected by bacteria and fungi, it was deduced that the conversion was the result of two oxidative steps. The first was indicated to be carried out by an enzyme thought to be a cytochrome P450 or related enzyme system. The second appeared as an oxidoreductase transformation.
smiles,measurement,setting,value
CCOC(=O)C1=C(C)NC(C)=C(C(=O)OC)C1c1cccc([N+](=O)[O-])c1 (racemic) [nitrendipine],gastrointestinal absorption,[1],almost complete
same,systemic bioavailability,[1],5% to 30
CCOC(=O)C1=C(C)NC(C)=C(C(=O)OC)C1c1cccc(Cl)c1Cl (stereo not shown) [felodipine],average bioavailability,[2],15%
CC(=O)N1CCN(c2ccc(OCC3COC(Cn4ccnc4)(c4ccc(Cl)cc4Cl)O3)cc2)CC1 (stereo not shown) [ketoconazole],inhibition of CYP3A4,[3],known to inhibit CYP3A4
C[C@@H]1O[C@@H](O[C@H]2[C@H](Oc3cc(O)c4c(c3)O[C@H](c3ccc(O)cc3)CC4=O)O[C@H](CO)[C@@H](O)[C@@H]2O)[C@H](O)[C@H](O)[C@H]1O [naringin],interaction with felodipine compared with grapefruit juice,[4],less interaction
C=C(C)C1CCC2=CC(O)CC(C)C2(C)C1 (stereo not shown) [nootkatol],inhibitory effect compared with nootkatone,[5]; similar experiments to nootkatone,less marked inhibitory effect
C=C(C)[C@@H]1CCC2=CC(=O)C[C@@H](C)[C@]2(C)C1 [nootkatone],Kd,[6],80 to 100 µM
same,toxicity,[7],does not appear to be toxic
same,inhibition of the first enzyme catalysed oxidative step,[8],acts as an inhibitor of the first enzyme catalysed oxidative step
same,IC50,[5],< 140 µM

# Source: patent US6054490A, “Use of sesquiterpenes for inhibiting oxidative enzymes” (Zylepsis Limited, priority 1995, dated 2000)
